Measured values from article PMC2944038 (Biochemical pharmacology, 2010).
Blank lines part the entries; values can stand above or below the compound they belong to.

Columns and labels:
[1] = target: T1, human apical sodium-dependent bile acid transporter (ASBT; SLC10A2) (Homo sapiens, UniProt Q12908); assay: ASBT inhibition: taurocholate uptake into ASBT-MDCK cells; type: cell-based; conditions: for ASBT inhibitor: with consideration of cytotoxicity
T1 sequence (Q12908 1-348): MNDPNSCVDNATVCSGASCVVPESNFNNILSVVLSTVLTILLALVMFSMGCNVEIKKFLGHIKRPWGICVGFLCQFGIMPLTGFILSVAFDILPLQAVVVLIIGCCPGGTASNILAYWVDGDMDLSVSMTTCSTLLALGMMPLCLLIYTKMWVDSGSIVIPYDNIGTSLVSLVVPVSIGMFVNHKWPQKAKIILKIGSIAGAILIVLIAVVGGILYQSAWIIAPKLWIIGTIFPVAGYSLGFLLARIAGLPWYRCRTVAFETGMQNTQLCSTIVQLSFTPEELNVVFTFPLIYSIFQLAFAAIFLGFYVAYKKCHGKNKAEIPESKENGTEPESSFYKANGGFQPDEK

[2] = target: T2, human organic cation/carnitine transporter (OCTN2; SLC22A5) (Homo sapiens, UniProt O76082); assay: OCTN2 inhibition: L-carnitine uptake into OCTN2-MDCK cells; type: cell-based; conditions: for OCTN2 inhibitor: with consideration of cytotoxicity
T2 sequence (O76082 1-557): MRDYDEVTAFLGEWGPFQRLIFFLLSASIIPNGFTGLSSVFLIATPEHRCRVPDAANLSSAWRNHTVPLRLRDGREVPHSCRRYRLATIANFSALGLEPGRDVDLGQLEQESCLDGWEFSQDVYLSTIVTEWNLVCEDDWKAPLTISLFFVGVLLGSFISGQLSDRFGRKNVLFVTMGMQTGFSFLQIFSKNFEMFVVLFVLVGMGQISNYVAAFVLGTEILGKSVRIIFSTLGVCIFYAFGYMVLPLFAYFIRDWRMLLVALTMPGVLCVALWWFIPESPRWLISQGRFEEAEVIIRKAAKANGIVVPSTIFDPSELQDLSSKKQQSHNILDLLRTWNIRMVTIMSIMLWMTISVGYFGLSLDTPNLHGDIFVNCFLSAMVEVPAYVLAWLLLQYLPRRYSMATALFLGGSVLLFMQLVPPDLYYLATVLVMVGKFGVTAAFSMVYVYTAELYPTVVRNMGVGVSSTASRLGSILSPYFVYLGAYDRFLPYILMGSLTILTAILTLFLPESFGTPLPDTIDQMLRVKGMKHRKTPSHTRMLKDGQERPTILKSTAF

[3] = WST-1 cytotoxicity study in MDCK cells; type: cell-based; conditions: dog, MDCK cells (ASBT-MDCK or OCTN2-MDCK, not specified)
[4] = tested on: MDCK cells; assay: WST-1 cytotoxicity study in MDCK cells; type: cell-based; conditions: for cytotoxicity in MDCK cells (in words): cytotoxic if cell viability 80% or less, 10 min exposure
[5] = tested on: HEK cells; conditions: for cytotoxicity in HEK cells (in words): cytotoxic if cell viability 80% or less, 10 min exposure
[6] = target: T1, human apical sodium-dependent bile acid transporter (ASBT; SLC10A2); conditions: known inhibitors selected for this study; cited from earlier work
[7] = target: T3, excitatory amino acid transporter 4 (EAAT4; SLC1A6) (Homo sapiens, UniProt P48664); assay: EAAT4 inhibition: glutamate uptake into EAAT4-HEK cells; type: cell-based; conditions: for EAAT4 inhibitor: with consideration of cytotoxicity
T3 sequence (P48664 1-564): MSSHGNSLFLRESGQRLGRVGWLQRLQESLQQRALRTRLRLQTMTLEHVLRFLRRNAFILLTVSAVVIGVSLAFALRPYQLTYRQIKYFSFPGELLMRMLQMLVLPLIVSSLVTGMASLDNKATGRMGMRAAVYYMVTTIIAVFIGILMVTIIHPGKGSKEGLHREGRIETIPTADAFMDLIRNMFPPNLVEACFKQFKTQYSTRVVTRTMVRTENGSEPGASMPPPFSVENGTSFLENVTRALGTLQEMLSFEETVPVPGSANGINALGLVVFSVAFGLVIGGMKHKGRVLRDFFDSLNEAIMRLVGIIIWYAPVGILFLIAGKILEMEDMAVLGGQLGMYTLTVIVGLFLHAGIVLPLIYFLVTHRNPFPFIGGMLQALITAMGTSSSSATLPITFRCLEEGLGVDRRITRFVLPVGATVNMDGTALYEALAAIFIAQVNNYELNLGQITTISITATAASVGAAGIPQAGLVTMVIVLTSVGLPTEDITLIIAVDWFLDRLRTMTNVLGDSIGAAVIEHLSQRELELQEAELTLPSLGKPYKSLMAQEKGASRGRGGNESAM

[8] = EAAT4-HEK, drug concentration not given

Compound: COC(=O)C1=C(C)NC(C)=C(C(=O)OCC(C)C)C1c1ccccc1[N+](=O)[O-] (stereo not shown) [Nisoldipine, nisoldipine]
ASBT inhibitor [1]: only inhibited ASBT | OCTN2 inhibitor [2]: not classed as OCTN2 inhibitors | viability at 10 min, 100 μM [3]: 56% | cytotoxicity in MDCK cells (in words) [4]: cytotoxic to MDCK cells

taurocholate uptake [1]: 4.51% | ASBT inhibition ([1]; ASBT-MDCK, drug concentration not given): over 90% | OCTN2 inhibition (reduction of L-carnitine uptake) ([2]; OCTN2-MDCK, drug concentration not given): ~35% | EAAT4 inhibition [7, 8]: ~35% | glutamate uptake [7, 8]: about 60%
Compound: CC(C)n1c(/C=C/C(O)CC(O)CC(=O)O)c(-c2ccc(F)cc2)c2ccccc21 (stereo not shown) [Fluvastatin, fluvastatin]
cytotoxicity in HEK cells (in words) [5]: without cytotoxicity | ASBT inhibition, previously reported [6]: competitively inhibits ASBT | viability at 10 min [3]: 107% | EAAT4 inhibitor [7]: inhibited all three transporters

Compound: CC[C@H](C)C(=O)O[C@H]1C[C@@H](C)C=C2C=C[C@H](C)[C@H](CC[C@@H]3C[C@@H](O)CC(=O)O3)[C@H]21 [Lovastatin, lovastatin]
EAAT4 inhibitor [7]: did not appreciably inhibit EAAT4

Compound: CSc1ccc2c(c1)N(CCC1CCCCN1C)c1ccccc1S2 (stereo not shown) [Thioridazine, thioridazine]
viable cells / cell viability ([5]; HEK cells, 10 min, drug concentration not given): 73.5% | cytotoxicity in HEK cells (in words) [5]: reduced cell viability in HEK cells | ASBT inhibition, previously reported [6]: known to inhibit both transporters | cytotoxicity in MDCK cells (in words) [4]: not cytotoxic in MDCK cells | EAAT4 inhibitor [7]: non-inhibitors of EAAT4

Compound: Clc1ccc(C(Cn2ccnc2)OCc2ccsc2Cl)c(Cl)c1 (stereo not shown) [Tioconazole, tioconazole]
cytotoxicity in HEK cells (in words) [5]: reduced cell viability in HEK cells | cytotoxicity in MDCK cells (in words) [4]: not in MDCK cells | EAAT4 inhibitor [7]: non-inhibitors of EAAT4

Compound: CN(C)CCC(c1ccc(Cl)cc1)c1ccccn1 (stereo not shown) [Chlorpheniramine, chlorpheniramine]
ASBT inhibitor [1]: only inhibited OCTN2

Compound: CCOC(=O)C1=C(COCCN)NC(C)=C(C(=O)OC)C1c1ccccc1Cl (stereo not shown) [Amlodipine, amlodipine]
viability at 10 min, 100 μM [3]: 101 ± 6% | viability at 10 min, 500 μM [3]: 39.3% | cells non-viable ([4]; MDCK cells): 60% | cytotoxicity in MDCK cells (in words) [4]: cytotoxic to MDCK cells

Compound: COc1ccc2c(c1)c(CC(=O)O)c(C)n2C(=O)c1ccc(Cl)cc1 [Indomethacin, indomethacin]
ASBT inhibitor [1]: only inhibited ASBT | OCTN2 inhibitor [2]: only inhibited ASBT

Compound: CCC(C)(C)C(=O)O[C@H]1C[C@@H](C)C=C2C=C[C@H](C)[C@H](CC[C@@H]3C[C@@H](O)CC(=O)O3)[C@H]21 [Simvastatin, simvastatin]
EAAT4 inhibitor [7]: did not appreciably inhibit EAAT4

Compound: CN(C)CCCN1c2ccccc2Sc2ccc(Cl)cc21 [chlorpromazine]
cytotoxicity in MDCK cells (in words) [4]: not cytotoxic in MDCK cells

Compound: COc1ccc([C@@H]2Sc3ccccc3N(CCN(C)C)C(=O)[C@@H]2OC(C)=O)cc1 [Diltiazem, diltiazem]
ASBT inhibition, previously reported [6]: known to inhibit both transporters

Compound: COC(=O)C1=C(C)NC(C)=C(C(=O)OCCN(C)Cc2ccccc2)C1c1cccc([N+](=O)[O-])c1 (stereo not shown) [Nicardipine, nicardipine]
ASBT inhibitor [1]: only inhibited ASBT | cytotoxicity in MDCK cells (in words) [4]: cytotoxic to MDCK cells

Compound: CN1CCN(C2=Nc3cc(Cl)ccc3Nc3ccccc32)CC1 [Clozapine, clozapine]
cytotoxicity in HEK cells (in words) [5]: reduced cell viability in HEK cells | cytotoxicity in MDCK cells (in words) [4]: not cytotoxic in MDCK cells | EAAT4 inhibitor [7]: non-inhibitors of EAAT4
